From patent US9737511B2, “Method of treating or preventing pathologic effects of acute increases in hyperglycemia and/or acute increases of free fatty acid flux” (Albert Einstein College of Medicine, Inc., priority 2004, dated 2017)

Experiments:
[1] = system: bovine aortic endothelial cells; assay: DNA strand breakage, Comet assay; assay type: cell-based; details: 30 mM glucose plus 100 μM compound, 7 days, FIG. 24
Experimental: Bovine aortic endothelial cells (“BAECs”, passage 4-10) were plated in 10 mm cell culture plates until confluent. Cells were incubated with either 5 mM glucose, 30 mM glucose, 30 mM glucose plus 100 μM deferoxamine (DFO), or 30 mM glucose plus 100 μM DMSO, a hydroxyl radical scavenger, for 7 days. Medium with reagents was changed daily. DNA strand breakage was detected using the Comet assay method.
DNA breakage detection was performed using the Comet Assay kit (Trevigen Gaitherburg Md.). Briefly, single cell electrophoresis was performed on the cometslide for 10 min at 1 volt/cm (measured from one electrode to another). After air-drying, the cometslide was stained with SYBR green. Fluorescence was detected using the Olympus IX70 fluorescent microscope and analysis of the fluorescent density of DNA breakage (length of tail) was performed using Image J software.

[2] = system: poly (ADP-ribose)polymerase (PARP); assay: PARP activity by 3H-NAD incorporation in aortic endothelial cells; assay type: cell-based, bovine; details: 30 mM glucose plus 100 μM compound, 6 days, FIG. 25
Experimental: Bovine aortic endothelial cells (“BAECs”, passage 4-10) were plated in 10 mm cell culture plates until confluent. Cells were incubated with either 5 mM glucose, 30 mM glucose, 30 mM glucose plus 100 μM deferoxamine, or 30 mM glucose plus 100 μM DMSO for 6 days and medium changed daily.
The 3H-NAD incorporation method was used to assess PARP activity. BAECs were incubated with buffer which was composed of 56 mM Hepes (pH 7.5), 28 mM KCl, 28 mM NaCl, 2 mM MgCl2, 0.01% digitonin, 25 mM NAD^+, and 1 μCi/ml ^3HNAD^+ for 10 min at 37° C. TCA was added to precipitate ribosylated protein and cells were lysed in 2% NaOH. Detection of incorporated ^3H-NAD was performed using a scintillation counter, and PARP activity determined according to the number of ^3H-NAD dpm.

[3] = system: endothelial nitric oxide synthase (eNOS); assay: eNOS activity (3H-citrulline) in aortic endothelial cells; assay type: cell-based, bovine; details: 30 mM glucose plus 100 μM deferoxamine, 24 hour, FIG. 28 bar 3
Experimental: Bovine aortic endothelial cells (“BAECs”, passage 4-10) were plated in 24-well plate (50,000 cell/well). Cells were incubated with either 5 mM glucose, 30 mM glucose alone, or 30 mM glucose plus 100 μM deferoxamine, for 24 hour. Six hours before eNOS activity determination, media without arginine was added to the cells to deplete endogenous arginine.
Measurement of eNOS activity was accomplished as follows. BAECs were incubated with 400 μl of PBS-^3H-arginine (1.5 μci/ml) buffer for 30 min at 37° C. The reaction was stopped by adding IN TCA (500 μl/well, ice cold ), the cells were freeze fractured in liquid nitrogen for 2 min and thawed at 37° C. for 5 min to obtain the cell lysate. After extraction with ether, the cell lysate was adjusted to pH 5.5 using Hepes buffer containing 2 mM EDTA and 2 mM of EGTA, then loaded onto Trisformed DOWEX 50WX8 ion-exchange columns and ^3H-citrulline collected. Detection of ^3H-citrulline was performed using a liquid scintillation counter, and eNOS activity was calculated from the amount of ^3H-citrulline generated.

diabetic mice (db/db) = assay: Diabetic wound healing (wound closure); assay type: in vivo, mouse; details: deferoxamine-treated diabetic mice, FIGS. 33A-B
Source text: The effect of reducing the wound healing in diabetic mice (db/db) by treating them with deferoxamine was also studied in the novel model of graded ischemia in the dorsal soft tissue of mice of Example 20. The animals were made diabetics as described in Example 21.

[4] = system: bovine aortic endothelial cells; assay: Hyperglycemia-induced intracellular reactive oxygen species production (CM-H2DCFDA probe); assay type: cell-based; details: 30 mM glucose plus 250 μM deferoxamine, 72 hrs, FIG. 21 bar 4
Experimental: Cell culture conditions: For ROS measurement, bovine aortic endothelial cells (BAECs, passage 4-10) were plated in 96 well plates at 100,000 cells/well in Eagle's MEM containing 10% FBS, essential and nonessential amino acids, and antibiotics. Cells were incubated with either 5 mM glucose, 30 mM glucose, 30 mM glucose plus 100 micromolar deferoxamine, 30 mM glucose plus 250 micromolar deferoxamine. The deferoxamine was freshly prepared and added to the cells on three consecutive days. The ROS measurements were performed 72 hrs after the initial treatment.
Intracellular reactive oxygen species measurements: The intracellular formation of reactive oxygen species was detected using the fluorescent probe CMH2DCFDA (Molecular Probes). Cells (1×105 ml-1) were loaded with 10iM CM-H2DCFDDA, incubated for 45 min at 37° C., and analyzed in an HTS 7000 Bio Assay Fluorescent Plate Reader (Perkin Elmer) using the HTSoft program. ROS production was determined from an H202 standard curve (10-200 nmol ml-1).

[5] = system: endothelial nitric oxide synthase (eNOS); assay: eNOS activity in aortas of diabetic mice; assay type: in vivo, mouse; details: STZ diabetic mice, 10 mg/kg subcutaneously once per day for 7 days, FIG. 29 bar 3
Experimental: (§1) Male C57B16 mice (6-8 weeks old) were made diabetic by daily injections of 50 mg/kg streptozotocin in 0.05 M NaCitrate pH 4.5 after an eight hour fast, for five consecutive days. Two weeks after the initial injection, the blood glucose was determined and the diabetic mice were randomized into two groups with equal mean blood glucose levels. Deferoxamine (10 mg/kg) was injected subcutaneously once per day for 7 days in one group of diabetic animals. The aortas were collected for endothelial nitric oxide synthase (eNOS) activity measurement.
Measurement eNOS activity was accomplished as follows. Aortas were collected in liquid-nitrogen and tissue proteins isolated. Immunoprecipitation methods were used to purify the eNOS from tissue lysates. The purified eNOS immuno-complex was incubated with 100 μl of reaction buffer (3 μM Tetrahydrobiopterin, ImM NAPDH, 2.5 mM CaCl2, 200 U Calmodulin, ^3H-L-arginine 0.2 μCi) for 45 min at 37° C. with rolling. After the incubation, samples were loaded onto Tris-formed DOWEX 50WX8 ion-exchange column and ^3H-citrulline was collected. ^3H-citrulline was quantitated using a liquid scintillation counter and eNOS activity was calculated from the amount of ^3H-citrulline generated.

prostacyclin synthase [6] = assay: Prostacyclin synthase activity in aortas of diabetic mice; assay type: in vivo, mouse; details: STZ diabetic mice, 10 mg/kg subcutaneously once per day for 7 days, FIG. 27 bar 3
Experimental: as §1, with “injection” for “injection,”, “collected.” for “collected”, “prostacyclin” for “endothelial nitric oxide”, “synthase” for “synthase (eNOS)”
Prostacyclin synthase activity measurement A competitive immunoassay method (Correlate-EIA) was used for the quantitative determination of 6-keto-PGF1α. Mouse aortas were washed with PBS and incubated at 37° C. for 3 hours in 400 μl incubation buffer containing 20 mM TRIS buffer (pH 7.5), and 15 μM arachidonic acid. 100 μl of sample was used to measure the PGF 1α.

[7] = system: streptozotocin-induced diabetic (STZ) and wild type C57 (WT) mice; assay: Graded ischemia model in dorsal soft tissue (ischemic flap), angiogenic response to ischemia; assay type: in vivo, mouse; details: for EPC mobilization: STZ mice vs untreated STZ mice, day 7 postischemic insult, FIG. 35
Source text: Since the vascular anatomy of the mouse dorsum is precisely known, and the major axial vessels can be easily visualized, one can create a reliable zone of ischemia with a reproducible oxygen gradient in the tissue. This has been confirmed with direct tissue oxygen tension measurements utilizing five reference points (p1-p5) spaced 0.5 cm apart proceeding from the least to most ischemic regions. This also allows for the study of discrete microenvironments of ischemia (Areas A, B, C), with Area A being the least ischemic and Area C being the most ischemic portion of the soft tissue. The design of this model facilitates direct dynamic measurement of oxygen tension, quantitation of tissue survival, with a degree of reproducibility that allows correlation of specific oxygen tensions with changes in gene expression.
Researchers have created a novel model of graded ischemia in the dorsal soft tissue of mice. Since the vascular anatomy of the mouse dorsum is precisely known, and the major axial vessels can be easily visualized, this model creates a reliable zone of ischemia with a reproducible oxygen gradient in the tissue. This has been confirmed with direct tissue oxygen tension measurements utilizing four reference points (p1-p4) spaced 0.5 cm apart, proceeding from the least to most ischemic regions.
The effect of deferoxamine, an iron chelator, on ischemic neovascularization in streptozotocin-induced diabetic (STZ) and wild type C57 (WT) mice was examined. Male C57B16 mice (6-8 weeks old) were made diabetic by daily injections of 50 mg/kg streptozotocin in 0.05 M NaCitrate pH 4.5 after an eight hour fast, for five consecutive days. Two weeks after the initial injection the blood glucose was determined, the diabetic mice were randomized into two groups with equal mean blood glucose levels.
The treatment group was pretreated 7 days prior to having an ischemic flap created on their dorsum and throughout the experiment with daily injections of deferoxamine (10 mg/kg) subcutaneously once per day for 7 days in one group of diabetic animals. […]

[8] = system: bovine aortic endothelial cells; assay: Free intracellular iron measurement (fura-2 AM); assay type: cell-based; details: 30 mM glucose plus 100 μM deferoxamine, 24 hours, FIG. 23C
Experimental: In order to detect intracellular free iron, cells were loaded with fura-2 AM in the dark at 37° C. for 15 min in 1 ml of TBSS containing 5 μM furs-2 AM. After loading, cells were incubated with TBSS with Iml of 20 μM EDTA for 5 min. (Kress et al., “The Relationship between Intracellular Free Iron and Cell Injury in Cultured Neurons, Astrocytes, and Oligodendrocytes”, J. Neuro., 22(14):5848-5855 (2002), which is hereby incorporated by reference in its entirety). Fluorescence was detected using an Olympus IX70 with 10 X planapo objectives, run by I.P. Lab Spectrum on a Power PC computer. Analysis was performed with I.P.Lab Spectrum.
Bovine aortic endothelial cells (“BAECs”, passage 4-10) were plated in 24 well plates at […] in Eagle's MEM containing 10% FBS, essential and nonessential amino acids, and antibiotics. Cells were incubated with either 5 mM glucose, 30 mM glucose, or 30 mM glucose plus 100 μM deferoxamine. Free intracellular iron measurement was performed 24 hours later. To detect intracellular free iron, cells were loaded with fura-2 AM as described above in Example 12.

prostacyclin synthase [9] = assay: Prostacyclin synthase activity (6-keto-PGF1α immunoassay) in aortic endothelial cells; assay type: cell-based, bovine; details: 30 mM glucose plus 100 μM deferoxamine, 24 hours, FIG. 26 bar 3
Experimental: Bovine aortic endothelial cells (“BAECs”, passage 4-10) were plated in a 24-well plate (50,000 cell/well). Cells were incubated with either 5 mM glucose, 30 mM glucose, or 30 mM glucose plus 100 μM deferoxamine. The prostacyclin synthase product, PGF-1α, was measured 24 hours later.
Prostacyclin synthase activity measured as the concentration of the stable product of prostacyclin synthase, PGF-1a. A competitive immunoassay method (Correlate-EIA) was used for the quantitative determination of 6-keto-PGF1α. Samples (100 μl) collected from BAECs culture medium were added to the assay plate, which was precoated with antibody (6-keto-PGF1α, EIA conjugate solution). PGF1α concentration was calculated according to a standard curve, and data analysis performed using AssayZap software.

[10] = Migration of diabetic bone marrow derived, lineage depleted cells toward SDF; assay type: cell-based, mouse; details: cells from STZ mice treated with deferoxamine

| SMILES | hyperglycemia-induced DNA strand breakage [1] | hyperglycemia-induced PARP activation [2] | hyperglycemia-induced inhibition of eNOS activity [3] | complete wound closure (diabetic mice (db/db)) | hyperglycemia-induced increased ROS (superoxide) production [4] | diabetes-induced inhibition of eNOS activity in aortas [5] | diabetes-induced inhibition of prostacyclin synthase activity in aortas (prostacyclin synthase [6]) | EPC mobilization [7] | EPC mobilization ([7]; listed as Deferoxamine) | tissue survival ([7]; STZ mice, 10 mg/kg s.c. daily, FIG. 31B) | blood flow assessed by Doppler ([7]; STZ mice, 10 mg/kg s.c. daily, day 7, FIG. 31A) | post-ischemic neovascularization (CD31 positive blood vessel counts) ([7]; STZ mice, FIG. 32) | bone marrow-derived endothelial precursor cells mobilized in response to ischemia ([7]; deferoxamine-treated diabetic animals, FIGS. 34C-D) | capillary formation in ischemic tissue ([7]; deferoxamine-treated diabetic mice vs untreated, FIG. 34E-F) | oxygenation of ischemic flap by forming new vessels ([7]; deferoxamine-treated diabetic mice, FIGS. 34A-B) | diabetes-induced defect in the normal angiogenic response to ischemia ([7]; diabetic animals treated with deferoxamine) | neovascularization (CD31 positive blood vessel counts) ([7]; wild type mice, FIG. 32) | hyperglycemia-induced increase in intracellular free iron [8] | hyperglycemia-induced inhibition of prostacyclin synthase activity (PGF-1α) (prostacyclin synthase [9]) | migration toward SDF [10] |
| --- | --- | --- | --- | --- | --- | --- | --- | --- | --- | --- | --- | --- | --- | --- | --- | --- | --- | --- | --- | --- |
| C[S+](C)[O-] [DMSO] | Inhibit | Inhibit |  |  |  |  |  |  |  |  |  |  |  |  |  |  |  |  |  |  |
| CC(=O)N(O)CCCCCNC(=O)CCC(=O)N(O)CCCCCNC(=O)CCC(=O)N(O)CCCCCN [deferoxamine] | prevents | prevents | does not inhibit the activity of this important antiatherogenic enzyme at all | 16 days | completely prevents | does not inhibit the activity of this important antiatherogenic enzyme at all | does not inhibit the activity of this important antiatherogenic enzyme at all | improved | restores | restored to normal | restored to normal | restored | 1.12% | substantially increase | increase oxygenation | completely prevents | improved neovascularization | completely prevents | does not inhibit the activity of this important antiatherogenic enzyme at all | restored to normal |
